This assay deals with human HSV DNA polymerase UL30 (Human herpesvirus 1 (strain 17) (HHV-1) (Human herpes simplex virus 1), UniProt P04293). The experiment in a line: biochemical. To be noted: 625 pM HSV polymerase, 20 minutes at room temperature; read-out: HSV-polymerase Biochemical IC50.
The term IC50 denotes the point on the concentration scale where inhibition reaches its midpoint. As for `Cn1nc(C(=O)NCc2ccc(C#N)cc2)c2c1C(=O)N(CC1(S(=O)(=O)C(C)(C)C#N)CC1)CC2` [Example 59, N-(4-Cyanobenzyl)-6-((1-((2-cyanopropan-2-yl)sulfonyl)cyclopropyl)methyl)-1-methyl-7-oxo-4,5,6,7-tetrahydro-1H-pyrazolo[3,4-c]pyridine-3-carboxamide], the IC50 worked out at 23 nM.
The result for `Cn1nc(C(=O)NCc2ccc(C#N)cc2)c2c1C(=O)N(CC1(S(=O)(=O)C(C)(C)CN3CC(F)C3)CC1)CC2` [Example 60, N-(4-Cyanobenzyl)-6-((1-((1-(3-fluoroazetidin-1-yl)-2-methylpropan-2-yl)sulfonyl)cyclopropyl)methyl)-1-methyl-7-oxo-4,5,6,7-tetrahydro-1H-pyrazolo[3,4-c]pyridine-3-carboxamide] reads 45 nM; that for `Cn1nc(C(=O)NCc2ccc(C#N)cc2)c2c1C(=O)N(CC1(S(=O)(=O)C(C)(C)CN3CCOCC3)CC1)CC2` [Example 61, N-(4-Cyanobenzyl)-1-methyl-6-((1-((2-methyl-1-morpholinopropan-2-yl)sulfonyl)cyclopropyl)methyl)-7-oxo-4,5,6,7-tetrahydro-1H-pyrazolo[3,4-c]pyridine-3-carboxamide], 75 nM.
The result for `CO[C@@H]1CCN(CC(C)(C)S(=O)(=O)C2(CN3CCc4c(C(=O)NCc5ccc(C#N)cc5)nn(C)c4C3=O)CC2)C1` [Example 62, (R)-N-(4-cyanobenzyl)-6-((1-((1-(3-methoxypyrrolidin-1-yl)-2-methylpropan-2-yl)sulfonyl)cyclopropyl)methyl)-1-methyl-7-oxo-4,5,6,7-tetrahydro-1H-pyrazolo[3,4-c]pyridine-3-carboxamide] reads 139 nM; that for `Cn1nc(C(=O)NCc2ccc(C#N)cc2)c2c1C(=O)N(CC1(S(=O)(=O)C(C)(C)CN3CC4CC(C3)O4)CC1)CC2` [Example 63, 6-((1-((1-(6-Oxa-3-azabicyclo[3.1.1]heptan-3-yl)-2-methylpropan-2-yl)sulfonyl)cyclopropyl)methyl)-N-(4-cyanobenzyl)-1-methyl-7-oxo-4,5,6,7-tetrahydro-1H-pyrazolo[3,4-c]pyridine-3-carboxamide], 100 nM; that for `Cn1nc(C(=O)NCc2ccc(C#N)cc2)c2c1C(=O)N(CC1(S(=O)(=O)C(C)(C)CN3CC4CC3CO4)CC1)CC2` (centres unmarked) [Example 64, 6-((1-((1-(2-Oxa-5-azabicyclo[2.2.1]heptan-5-yl)-2-methylpropan-2-yl)sulfonyl)cyclopropyl)methyl)-N-(4-cyanobenzyl)-1-methyl-7-oxo-4,5,6,7-tetrahydro-1H-pyrazolo[3,4-c]pyridine-3-carboxamide], 60 nM.
The result for `Cn1nc(C(=O)NCc2ccc(C#N)cc2)c2c1C(=O)N(CC1(S(=O)(=O)C(C)(C)CN3CC(O)C3)CC1)CC2` [Example 65, N-(4-Cyanobenzyl)-6-((1-((1-(3-hydroxyazetidin-1-yl)-2-methylpropan-2-yl)sulfonyl)cyclopropyl)methyl)-1-methyl-7-oxo-4,5,6,7-tetrahydro-1H-pyrazolo[3,4-c]pyridine-3-carboxamide] reads 52 nM; that for `COC1CN(CC(C)(C)S(=O)(=O)C2(CN3CCc4c(C(=O)NCc5ccc(C#N)cc5)nn(C)c4C3=O)CC2)C1` [Example 66, N-(4-Cyanobenzyl)-6-((1-((1-(3-methoxyazetidin-1-yl)-2-methylpropan-2-yl)sulfonyl)cyclopropyl)methyl)-1-methyl-7-oxo-4,5,6,7-tetrahydro-1H-pyrazolo[3,4-c]pyridine-3-carboxamide], 50 nM.
Take `Cn1nc(C(=O)NCc2ccc(C#N)cc2)c2c1C(=O)N(CC1(S(=O)(=O)C(C)(C)CN3CC4(COC4)C3)CC1)CC2` [Example 67, N-(4-Cyanobenzyl)-1-methyl-6-((1-((2-methyl-1-(2-oxa-6-azaspiro[3.3]heptan-6-yl)propan-2-yl)sulfonyl)cyclopropyl)methyl)-7-oxo-4,5,6,7-tetrahydro-1H-pyrazolo[3,4-c]pyridine-3-carboxamide]: the IC50 was found to be 48 nM.
For `Cn1nc(C(=O)NCc2ccc(C#N)cc2)c2c1C(=O)N(CC1(S(=O)(=O)C(C)(C)CN3CCC(O)C3)CC1)CC2` (centres unmarked) [Example 68, N-(4-Cyanobenzyl)-6-((1-((1-(3-hydroxypyrrolidin-1-yl)-2-methylpropan-2-yl)sulfonyl)cyclopropyl)methyl)-1-methyl-7-oxo-4,5,6,7-tetrahydro-1H-pyrazolo[3,4-c]pyridine-3-carboxamide], the IC50 worked out at 21 nM.
Under `Cn1nc(C(=O)NCc2ccc(C#N)cc2)c2c1C(=O)N(CC1(S(=O)(=O)C(C)(C)CNCCO)CC1)CC2` [Example 69, N-(4-Cyanobenzyl)-6-((1-((1-((2-hydroxyethyl)amino)-2-methylpropan-2-yl)sulfonyl)cyclopropyl)methyl)-1-methyl-7-oxo-4,5,6,7-tetrahydro-1H-pyrazolo[3,4-c]pyridine-3-carboxamide] stands 40 nM; under `Cn1nc(C(=O)NCc2ccc(C#N)cc2)c2c1C(=O)N(CC1(S(=O)(=O)C(C)(C)CN)CC1)CC2` [Example 70, 6-((1-((1-Amino-2-methylpropan-2-yl)sulfonyl)cyclopropyl)methyl)-N-(4-cyanobenzyl)-1-methyl-7-oxo-4,5,6,7-tetrahydro-1H-pyrazolo[3,4-c]pyridine-3-carboxamide], 37 nM.
The result for `COC(=O)NCC(C)(C)S(=O)(=O)C1(CN2CCc3c(C(=O)NCc4ccc(C#N)cc4)nn(C)c3C2=O)CC1` [Example 73, Methyl (2-((1-((3-((4-cyanobenzyl)carbamoyl)-1-methyl-7-oxo-1,4,5,7-tetrahydro-6H-pyrazolo[3,4-c]pyridin-6-yl)methyl)cyclopropyl)sulfonyl)-2-methylpropyl)carbamate] reads 40 nM; that for `Cn1nc(C(=O)NCc2ccc(C#N)cc2)c2c1C(=O)N(CC1(S(=O)(=O)C(C)(C)CNC(=O)CN)CC1)CC2` [Example 74, 6-((1-((1-(2-Aminoacetamido)-2-methylpropan-2-yl)sulfonyl)cyclopropyl)methyl)-N-(4-cyanobenzyl)-1-methyl-7-oxo-4,5,6,7-tetrahydro-1H-pyrazolo[3,4-c]pyridine-3-carboxamide], 65 nM.
Under `C[C@@H](N)C(=O)NCC(C)(C)S(=O)(=O)C1(CN2CCc3c(C(=O)NCc4ccc(C#N)cc4)nn(C)c3C2=O)CC1` [Example 75, (R)-6-((1-((1-(2-Aminopropanamido)-2-methylpropan-2-yl)sulfonyl)cyclopropyl)methyl)-N-(4-cyanobenzyl)-1-methyl-7-oxo-4,5,6,7-tetrahydro-1H-pyrazolo[3,4-c]pyridine-3-carboxamide] stands 133 nM; under `C[C@H](N)C(=O)NCC(C)(C)S(=O)(=O)C1(CN2CCc3c(C(=O)NCc4ccc(C#N)cc4)nn(C)c3C2=O)CC1` [Example 76, (S)-6-((1-((1-(2-Aminopropanamido)-2-methylpropan-2-yl)sulfonyl)cyclopropyl)methyl)-N-(4-cyanobenzyl)-1-methyl-7-oxo-4,5,6,7-tetrahydro-1H-pyrazolo[3,4-c]pyridine-3-carboxamide], 123 nM.
`Cn1nc(C(=O)NCc2ccc(C#N)cc2)c2c1C(=O)N(CC1(S(=O)(=O)C(C)(C)CNC(=O)C(C)(C)N)CC1)CC2` [Example 77, 6-((1-((1-(2-Amino-2-methylpropanamido)-2-methylpropan-2-yl)sulfonyl)cyclopropyl)methyl)-N-(4-cyanobenzyl)-1-methyl-7-oxo-4,5,6,7-tetrahydro-1H-pyrazolo[3,4-c]pyridine-3-carboxamide]: the IC50 was 142 nM.
Under `CN(C)CC(=O)NCC(C)(C)S(=O)(=O)C1(CN2CCc3c(C(=O)NCc4ccc(C#N)cc4)nn(C)c3C2=O)CC1` [Example 78, N-(4-Cyanobenzyl)-6-((1-((1-(2-(dimethylamino)acetamido)-2-methylpropan-2-yl)sulfonyl)cyclopropyl)methyl)-1-methyl-7-oxo-4,5,6,7-tetrahydro-1H-pyrazolo[3,4-c]pyridine-3-carboxamide] stands 206 nM; under `Cn1nc(C(=O)NCc2ccc(C#N)cc2)c2c1C(=O)N(CC1(S(=O)(=O)C(C)(C)COC(F)(F)CO)CC1)CC2` [Example 84, N-(4-Cyanobenzyl)-6-((1-((1-(1,1-difluoro-2-hydroxyethoxy)-2-methylpropan-2-yl)sulfonyl)cyclopropyl)methyl)-1-methyl-7-oxo-4,5,6,7-tetrahydro-1H-pyrazolo[3,4-c]pyridine-3-carboxamide], 45 nM.
The result for `Cn1nc(C(=O)NCc2ccc(C#N)cc2)c2c1C(=O)N(CC1(S(=O)(=O)C(C)(C)COC(F)(F)CN)CC1)CC2` [Example 85, 6-((1-((1-(2-Amino-1,1-difluoroethoxy)-2-methylpropan-2-yl)sulfonyl)cyclopropyl)methyl)-N-(4-cyanobenzyl)-1-methyl-7-oxo-4,5,6,7-tetrahydro-1H-pyrazolo[3,4-c]pyridine-3-carboxamide] reads 49 nM.
The result for `Cn1nc(C(=O)NCc2ccc(C#N)cc2)c2c1C(=O)N(CC1(S(=O)(=O)C(C)(C)COCC(C)(C)O)CC1)CC2` [Example 86, N-(4-Cyanobenzyl)-6-((1-((1-(2-hydroxy-2-methylpropoxy)-2-methylpropan-2-yl)sulfonyl)cyclopropyl)methyl)-1-methyl-7-oxo-4,5,6,7-tetrahydro-1H-pyrazolo[3,4-c]pyridine-3-carboxamide] reads 159 nM; that for `Cn1nc(C(=O)NCc2ccc(Cl)cc2)c2c1C(=O)N(CC1(S(=O)(=O)C(C)(C)COCCO)CC1)CC2` [Example 88, N-(4-Chlorobenzyl)-6-((1-((1-(2-hydroxyethoxy)-2-methylpropan-2-yl)sulfonyl)cyclopropyl)methyl)-1-methyl-7-oxo-4,5,6,7-tetrahydro-1H-pyrazolo[3,4-c]pyridine-3-carboxamide], 39 nM; that for `Cn1nc(C(=O)NCc2ccc(C#N)cc2)c2c1C(=O)N(CC1(S(=O)(=O)C3(COCCN)CC3)CC1)CC2` [Example 96, 6-((1-((1-((2-aminoethoxy)methyl)cyclopropyl)sulfonyl)cyclopropyl)methyl)-N-(4-cyanobenzyl)-1-methyl-7-oxo-4,5,6,7-tetrahydro-1H-pyrazolo[3,4-c]pyridine-3-carboxamide], 20 nM.

The values are drawn from patent US20250353820A1, “ANTIVIRAL PYRAZOLOPYRIDINONE COMPOUNDS” (Novartis AG, priority 2019, published 2025).
